Measurements: US9271960B2, “Tetrahydrocarbazoles as active agents for inhibiting VEGF production by translational control” (PTC Therapeutics, Inc., priority 2004, dated 2016)
Structures can show the parent of a compound that is named as a salt.

Test system: VEGF
Test: Hypoxia-inducible endogenous VEGF expression ELISA in HeLa cells
Format: cell-based
Details: Homo sapiens, HeLa, compounds 1-155, hypoxic conditions (1% O2), VEGF protein by ELISA, read-out: ELISA Activity
How it was run: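 HeLa cells held 24–48 h in hypoxia (1% O2) with a concentration series of compound; VEGF secreted into media quantified by ELISA against a standard curve. Parallel Cell Titer Glo viability under identical conditions gives CC50; EC50 from percent-inhibition curves.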

| Structure (SMILES) | EC50 |
| --- | --- |
| O=C1CCCc2c1[nH]c1ccc(Br)cc21 [Compound 50, 6-Bromo-2,3,4,9-tetrahydro-carbazol-1-one] | 40 to 200 nM |
| Clc1ccc2[nH]c3c(c2c1)CCCC3n1cccc1 (centres unmarked) [Compound 37, 6-Chloro-1-pyrrol-1-yl-2,3,4,9-tetrahydro-1H-carbazole] | 40 to 200 nM |
| O=C(NC1CCCc2c1[nH]c1ccc(Br)cc21)c1ccc(-c2ccc(Cl)cc2)o1 (centres unmarked) [Compound 125, 5-(4-Chloro-phenyl)-furan-2-carboxylic acid (6-bromo-2,3,4,9-tetrahydro-1H-carbazol-1-yl)-amide] | 40 to 200 nM |
| N#Cc1ccc2[nH]c3c(c2c1)CCCC3n1cccc1 (centres unmarked) [Compound 59, 8-Pyrrol-1-yl-6,7,8,9-tetrahydro-5H-carbazole-3-carbonitrile] | 200 to 1000 nM |
| O=C1c2sccc2CN1C1CCCc2c1[nH]c1ccc(Br)cc21 (centres unmarked) [Compound 5, 5-(6-Bromo-2,3,4,9-tetrahydro-1H-carbazol-1-yl)-4,5-dihydro-thieno[2,3-c]pyrrol-6-one] | < 10 nM |
| FC(F)(F)c1ccc(NC2CCCc3c2[nH]c2ccc(C(F)(F)F)cc32)cc1 (centres unmarked) [Compound 140, (4-Trifluoromethyl-phenyl)-(6-trifluoromethyl-2,3,4,9-tetrahydro-1H-carbazol-1-yl)-amine] | 10 to 40 nM |
| CC(=O)n1c2c(c3cc(Br)ccc31)CCCC2n1cccc1 (centres unmarked) [Compound 13, 1-(6-Bromo-1-pyrrol-1-yl-1,2,3,4-tetrahydro-carbazol-9-yl)ethanone] | < 10 nM |
| COc1ccc(C(=O)NC2CCCc3c2[nH]c2ccc(Cl)cc32)cc1 (centres unmarked) [Compound 145, N-(6-Chloro-2,3,4,9-tetrahydro-1H-carbazol-1-yl)-4-methoxy-benzamide] | 10 to 40 nM |
| Cc1nnc(C2CCCc3c2[nH]c2ccc(Br)cc32)o1 (centres unmarked) [Compound 100, 6-Bromo-1-(5-methyl-[1,3,4]oxadiazol-2-yl)-2,3,4,9-tetrahydro-1H-carbazole] | > 1000 nM |
| CC(C)c1ccc(NC2CCCc3c2[nH]c2ccc(Br)cc32)cc1 (centres unmarked) [Compound 8, (6-Bromo-2,3,4,9-tetrahydro-1H-carbazol-1-yl)-(4-isopropyl-phenyl)-amine] | < 10 nM |
| O=C(O)c1ccc2[nH]c3c(c2c1)CCCC3n1cccc1 (centres unmarked) [Compound 120, 8-Pyrrol-1-yl-6,7,8,9-tetrahydro-5H-carbazole-3-carboxylic acid] | > 1000 nM |
| Brc1ccc2[nH]c3c(c2c1)CCCC3N1CC=CC1 (centres unmarked) [Compound 65, 6-Bromo-1-(2,5-dihydro-pyrrol-1-yl)-2,3,4,9-tetrahydro-1H-carbazole] | 200 to 1000 nM |
| FC(F)(F)c1ccc(NC2CCCc3c2[nH]c2ccc(Br)cc32)cc1 (centres unmarked) [Compound 6, (6-Bromo-2,3,4,9-tetrahydro-1H-carbazol-1-yl)-(4-trifluoromethyl-phenyl)-amine] | < 10 nM |
| FC(F)(F)c1ccc(NC2CCCc3c2[nH]c2ccc(Cl)cc32)cc1 (centres unmarked) [Compound 137, (6-Chloro-2,3,4,9-tetrahydro-1H-carbazol-1-yl)-(4-trifluoromethyl-phenyl)-amine] | < 10 nM |
| OCCc1cccc(NC2CCCc3c2[nH]c2ccc(Br)cc32)c1 (centres unmarked) [Compound 63, 2-[3-(6-Bromo-2,3,4,9-tetrahydro-1H-carbazol-1-ylamino)-phenyl]-ethanol] | 200 to 1000 nM |
| O/N=C/c1ccn(C2CCCc3c2[nH]c2ccc(Br)cc32)c1 (centres unmarked) [Compound 149, 1-(6-Bromo-2,3,4,9-tetrahydro-1H-carbazol-1-yl)-1H-pyrrole-3-carbaldehyde oxime] | 40 to 200 nM |

| Structure (SMILES) | EC50 |
| --- | --- |
| Fc1ccccc1NC1CCCc2c1[nH]c1ccc(Br)cc21 (centres unmarked) [Compound 17, (6-Bromo-2,3,4,9-tetrahydro-1H-carbazol-1-yl)-(2-fluoro-phenyl)-amine] | < 10 nM |
| CN(C(=O)c1ccccc1)C1CCCc2c1[nH]c1ccc(Br)cc21 (centres unmarked) [Compound 69, N-(6-Bromo-2,3,4,9-tetrahydro-1H-carbazol-1-yl)-N-methyl-benzamide] | 200 to 1000 nM |
| c1ccc2c3c([nH]c2c1)C(n1cccc1)CCC3 (centres unmarked) [Compound 102, 1-Pyrrol-1-yl-2,3,4,9-tetrahydro-1H-carbazole] | > 1000 nM |
| O=C(NC1CCCc2c1[nH]c1ccc(Br)cc21)c1ccsc1 (centres unmarked) [Compound 153, Thiophene-3-carboxylic acid (6-bromo-2,3,4,9-tetrahydro-1H-carbazol-1-yl)-amide] | 40 to 200 nM |
| Cc1nnsc1C(=O)NC1CCCc2c1[nH]c1ccc(Br)cc21 (centres unmarked) [Compound 103, 4-Methyl-[1,2,3]thiadiazole-5-carboxylic acid (6-bromo-2,3,4,9-tetrahydro-1H-carbazol-1-yl)-amide] | 200 to 1000 nM |
| FC(F)(F)c1ccc2[nH]c3c(c2c1)CCCC3Nc1ccc(Cl)cc1 (centres unmarked) [Compound 138, (4-Chloro-phenyl)-(6-trifluoromethyl-2,3,4,9-tetrahydro-1H-carbazol-1-yl)-amine] | 10 to 40 nM |
| Brc1ccc2[nH]c3c(c2c1)CCCC3n1ccc(CNc2ccccc2)c1 (centres unmarked) [Compound 49, [1-(6-Bromo-2,3,4,9-tetrahydro-1H-carbazol-1-yl)-1H-pyrrol-3-ylmethyl]-phenyl-amine] | 40 to 200 nM |
| O=C1CCCc2c1[nH]c1cc(Br)ccc21 [Compound 110, 7-Bromo-2,3,4,9-tetrahydro-carbazol-1-one] | > 1000 nM |
| Cc1ccc2[nH]c3c(c2c1)CCCC3=O [Compound 71, 6-Methyl-2,3,4,9-tetrahydro-carbazol-1-one] | 200 to 1000 nM |
| CCCCNC1CCCc2c1[nH]c1ccc(Br)cc21 (centres unmarked) [Compound 72, (6-Bromo-2,3,4,9-tetrahydro-1H-carbazol-1-yl)-butyl-amine] | 200 to 1000 nM |
| Brc1ccc2[nH]c3c(c2c1)CCCC3Nc1cnccn1 (centres unmarked) [Compound 31, (6-Bromo-2,3,4,9-tetrahydro-1H-carbazol-1-yl)-pyrazin-2-yl-amine] | 10 to 40 nM |
| Brc1ccc2[nH]c3c(c2c1)CCCC3NCC1CCCCC1 (centres unmarked) [Compound 67, (6-Bromo-2,3,4,9-tetrahydro-1H-carbazol-1-yl)-cyclohexylmethyl-amine] | 200 to 1000 nM |
| OC1CCCc2c1oc1ccc(Br)cc21 (centres unmarked) [Compound 108, 8-Bromo-1,2,3,4-tetrahydro-dibenzofuran-4-ol] | > 1000 nM |
| O=C1N(c2ccccc2)C2CCCc3c2n1c1ccc(Br)cc31 (centres unmarked) [Compound 112, 7-Bromo-2-phenyl-2a,3,4,5-tetrahydro-2H-2,9b-diaza-cyclopenta[jk]fluoren-1-one] | > 1000 nM |
| O=C(Nc1ccccc1)C1CCCc2c1[nH]c1ccc(Br)cc21 (centres unmarked) [Compound 91, 6-Bromo-2,3,4,9-tetrahydro-1H-carbazole-1-carboxylic acid phenylamide] | > 1000 nM |

Same assay, conditions: Homo sapiens, HeLa, compounds 191-239, hypoxic conditions, VEGF protein by ELISA, read-out: ELISA Activity EC50

| Structure (SMILES) | EC50 |
| --- | --- |
| OC(COc1ccc(C2CCCc3c2[nH]c2ccc(Cl)cc32)cc1)CN1CCSCC1 (centres unmarked) [Compound 217] | 10 to 40 nM |
| Oc1ccc(C2CCCCc3c2[nH]c2ccc(Cl)cc32)cc1 (centres unmarked) [Compound 230] | < 10 nM |
| OC(COc1ccc(C2CCCCc3c2[nH]c2ccc(Cl)cc32)cc1)CN1CCSCC1 (centres unmarked) [Compound 233] | < 10 nM |
| CC(=O)N1CCN(CC(O)COc2ccc(C3CCCc4c3[nH]c3ccc(Br)cc43)cc2)CC1 (centres unmarked) [Compound 197] | < 10 nM |
| OC1CCc2c([nH]c3ccc(Br)cc23)C1c1ccc(Cl)cc1 (centres unmarked) [Compound 238] | < 10 nM |
| Brc1ccc2[nH]c3c(c2c1)CCCC3c1ccc(OCCCn2ccnn2)cc1 (centres unmarked) [Compound 209] | < 10 nM |
| OC(COc1ccc(C2CCCCc3c2[nH]c2ccc(Cl)cc32)cc1)Cn1ccnc1 (centres unmarked) [Compound 231] | < 10 nM |
| COc1ccc(C2CCCc3c2[nH]c2ccc(Br)cc32)cc1 (centres unmarked) [Compound 192] | < 10 nM |
| OC(COc1ccc(C2CCCc3c2[nH]c2ccc(Cl)cc32)cc1)Cn1ccnc1 (centres unmarked) [Compound 220] | 10 to 40 nM |
| OC(COc1ccc(C2CCCc3c2[nH]c2ccc(Br)cc32)cc1)Cn1cncn1 (centres unmarked) [Compound 203] | 10 to 40 nM |
| OC(COc1ccc(C2CCCCc3c2[nH]c2ccc(Br)cc32)cc1)CN1CCOCC1 (centres unmarked) [Compound 225] | 40 to 200 nM |
| CN1CCN(CC(O)COc2ccc(C3CCCc4c3[nH]c3ccc(Cl)cc43)cc2)CC1 (centres unmarked) [Compound 219] | 10 to 40 nM |
| OC(COc1ccc(C2CCCc3c2[nH]c2ccc(Br)cc32)cc1)CN1CCOCC1 (centres unmarked) [Compound 196] | < 10 nM |
| OC(COc1ccc(C2CCCCc3c2[nH]c2ccc(Cl)cc32)cc1)Cn1cncn1 (centres unmarked) [Compound 235] | 10 to 40 nM |
| OC(COc1ccc(C2CCCCc3c2[nH]c2ccc(Cl)cc32)cc1)Cn1ccnn1 (centres unmarked) [Compound 232] | 10 to 40 nM |

Same assay, conditions: Homo sapiens, HeLa, purchased compounds 156-188, hypoxic conditions, VEGF protein by ELISA, read-out: ELISA Activity

| Structure (SMILES) | EC50 |
| --- | --- |
| COC(CNC1CCCc2c1[nH]c1ccc(C)cc21)OC (centres unmarked) [Compound 165, (2,2-Dimethoxy-ethyl)-(6-methyl-2,3,4,9-tetrahydro-1H-carbazol-1-yl)-amine] | > 1000 nM |
| COc1ccc(Oc2ccc3c(c2)c2c4n3CCNC4CCC2)cc1 (centres unmarked) [Compound 187, 8-(4-Methoxy-phenoxy)-2,3,3a,4,5,6-hexahydro-1H-pyrazino[3,2,1-jk]carbazole methanesulfonic acid] | > 1000 nM |
| CC(=O)N1CCn2c3c(c4cc(C(=O)O)ccc42)CCCC31 (centres unmarked) [Compound 184, 3-Acetyl-2.3,3a,4,5,6-hexahydro-1H-pyrazino[3,2,1-jk]carbazole-8-carboxylic acid] | > 1000 nM |
| Cc1ccc2c(c1)c1c3n2CCCNC3CCC1 (centres unmarked) [Compound 173, 11-Methyl-1,2,3,3a,4,5,6,7-octahydro-[1,4]diazepino[3,2,1-jk]carbazole] | > 1000 nM |

Same assay, conditions: Homo sapiens, HeLa, purchased compounds 156-188, hypoxic conditions, VEGF protein by ELISA, read-out: ELISA EC50

| Structure (SMILES) | EC50 |
| --- | --- |
| COC(CNC1CCCc2c1[nH]c1ccc(C)cc21)OC (centres unmarked) [Compound 165, (2,2-Dimethoxy-ethyl)-(6-methyl-2,3,4,9-tetrahydro-1H-carbazol-1-yl)-amine] | 5200 nM |
| COc1ccc(Oc2ccc3c(c2)c2c4n3CCNC4CCC2)cc1 (centres unmarked) [Compound 187, 8-(4-Methoxy-phenoxy)-2,3,3a,4,5,6-hexahydro-1H-pyrazino[3,2,1-jk]carbazole methanesulfonic acid] | 18000 nM |
| CC(=O)N1CCn2c3c(c4cc(C(=O)O)ccc42)CCCC31 (centres unmarked) [Compound 184, 3-Acetyl-2.3,3a,4,5,6-hexahydro-1H-pyrazino[3,2,1-jk]carbazole-8-carboxylic acid] | > 10000 nM |
| Cc1ccc2c(c1)c1c3n2CCCNC3CCC1 (centres unmarked) [Compound 173, 11-Methyl-1,2,3,3a,4,5,6,7-octahydro-[1,4]diazepino[3,2,1-jk]carbazole] | > 10000 nM |

Same assay, conditions: purchased compounds 156-188, hypoxic conditions, VEGF protein by ELISA, hydrochloride, read-out: ELISA EC50

| Structure (SMILES) | EC50 |
| --- | --- |
| OCCNC1CCCc2c1[nH]c1ccc(Br)cc21 (centres unmarked) [Compound 186, 2-(6-Bromo-2,3,4,9-tetrahydro-1H-carbazol-1-ylamino)-ethanol hydrochloride] | 12200 nM |

Same assay, conditions: purchased compounds 156-188, hypoxic conditions, VEGF protein by ELISA, read-out: ELISA Activity

| Structure (SMILES) | EC50 |
| --- | --- |
| OCCNC1CCCc2c1[nH]c1ccc(Br)cc21 (centres unmarked) [Compound 186, 2-(6-Bromo-2,3,4,9-tetrahydro-1H-carbazol-1-ylamino)-ethanol hydrochloride] | > 1000 nM |
